Counter-ions that a name gives are not always drawn.
Target: T1, human neuropeptide Y5 receptor (Homo sapiens, UniProt Q15761)
T1 construct: expressed in transfected cells; host or cells: HEK-293 (stably transfected, G-418 selected); membranes
T1 sequence (Q15761 1-445): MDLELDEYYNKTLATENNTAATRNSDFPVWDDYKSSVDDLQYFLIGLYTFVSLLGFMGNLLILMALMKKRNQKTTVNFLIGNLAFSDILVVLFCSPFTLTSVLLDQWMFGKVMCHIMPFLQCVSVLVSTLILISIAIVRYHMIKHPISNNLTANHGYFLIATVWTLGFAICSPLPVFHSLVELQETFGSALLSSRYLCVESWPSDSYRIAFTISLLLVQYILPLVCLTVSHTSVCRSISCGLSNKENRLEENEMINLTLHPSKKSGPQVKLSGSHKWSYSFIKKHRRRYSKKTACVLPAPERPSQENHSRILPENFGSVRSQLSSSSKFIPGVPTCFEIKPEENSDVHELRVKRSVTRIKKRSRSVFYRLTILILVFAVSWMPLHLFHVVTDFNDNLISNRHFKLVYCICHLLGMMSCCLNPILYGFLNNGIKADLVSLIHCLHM
Experiment: NPY5 HTS centrifugation assay: competition with 125I-PYY for binding to membranes of NPY5-transfected HEK293 cells
Details: 80 pM 125I-PYY, 1 hr room temperature; for % Inh @ 300 nM (% Inhibition of 125I-PYY Binding) / inhibition at 0.3 µM: 300 nM compound; for % Inh @ 3 uM (% Inhibition of 125I-PYY Binding) / inhibition at 3 µM: 3 uM compound; for inhibition at 0.3 µM: read-out: % Inh @ 300 nM (% Inhibition of 125I-PYY Binding); for inhibition at 3 µM: read-out: % Inh @ 3 uM (% Inhibition of 125I-PYY Binding)
Description: The compounds described in this invention were evaluated for binding to the human neuropeptide Y5 receptor.
Stably transfected cells served as the source for the membranes for the NPY5 receptor binding assay.
NPY5-transfected HEK293 cells were grown to confluence in 150 cm^2 culture dishes. […] Cells were then incubated in phosphate-buffered saline without Calcium and without Magnesium, supplemented with 2 mM EDTA. Cells were incubated for 10 minutes at room temperature and the cells were collected by repetitive pipeting. Cells were formed into pellets and then frozen at −80 until needed. Frozen pellets were homogenized with a polytron at full speed for 12 seconds in a homogenization buffer (20 mM Tris HCl, 5 mM EDTA, pH 7.4). Homogenates were centrifuged for 5 minutes at 4 C at 200 g. Supernatants were transferred to corex tubes and centrifuged for 25 minutes at 28,000 g. Pellets were re-suspended in Binding (20 mM HEPES, 10 mM NaCl, 0.22 mM KH2PO4, 1.3 mM CaCl2, 0.8 mM MgSO4, pH 7.4). Membranes were kept on ice until use.
Compounds to be tested were prepared as 10× stocks in binding buffer and added first to assay tubes (RIA vials, Sarstedt). […] To each tube is added 100 μL of membranes and the mixture is agitated by pipeting 2 times. Samples are incubated for 1 hr at room temperature. Aluminum cast plates (Sarstedt) containing the vials are then centrifuged 10 minutes at 3200 rpm in a Sorvall RT6000. Supernatant is then aspirated. To each vial 400 μL PBS is added and this is then aspirated again. Vials are then put in carrier polypropylene 12×75 tube and counted in gamma counter (Packard). Non-specific binding is determined in the presence of 300 nM NPY. […] These operations are known to those skilled in the art.

| Structure (SMILES) | % Inh @ 300 nM (% Inhibition of 125I-PYY Binding) | % Inh @ 3 uM (% Inhibition of 125I-PYY Binding) | inhibition at 0.3 µM | inhibition at 3 µM |
| --- | --- | --- | --- | --- |
| NC(CCCCNS(=O)(=O)c1ccccc1)C(=O)NC1CCc2ccccc2C1Cc1cccnc1 (mixture of isomers) [Compound 33] | 52% | 96% |  |  |
| CC(=O)NC(CCCCNS(=O)(=O)c1ccccc1)C(=O)NC1CCc2ccccc2C1Cc1cccnc1 (mixture of isomers) [Compound 37] | 89% | 102% |  |  |
| O=C(NC(CCCCNS(=O)(=O)c1ccccc1)C(=O)NC1CCc2ccccc2C1Cc1cccnc1)c1ccccc1 (mixture of isomers) [Compound 39] | 70% | 95% |  |  |
| CCNC(=O)NC(CCCCNS(=O)(=O)c1ccccc1)C(=O)NC1CCc2ccccc2C1Cc1cccnc1 (mixture of isomers) [Compound 40] | 21% | 92% |  |  |
| NC(=O)NC(CCCCNS(=O)(=O)c1ccccc1)C(=O)NC1CCc2ccccc2C1Cc1cccnc1 (mixture of isomers) [Compound 41] | 54% | 94% |  |  |
| CC(C)(C)OC(=O)NC1CCN(CC(=O)NC2CCc3cc(F)ccc3C2Cc2cccnc2)C1 (mixture of isomers) [Compound 56] | 88% | 94% |  |  |
| CC(C)(C)OC(=O)NC1CCN(CC(=O)NC2CCc3cc(F)ccc3C2Cc2cccnc2)C1 (mixture of isomers) [Compound 57] | 87% | 93% |  |  |
| O=C(CN1CCC(NS(=O)(=O)c2ccccc2)C1)NC1CCc2cc(F)ccc2C1Cc1cccnc1 (mixture of isomers) [Compound 58] | 93% | 91% |  |  |
| O=C(CN1CCC(NS(=O)(=O)c2ccccc2)C1)NC1CCc2cc(F)ccc2C1Cc1cccnc1 (mixture of isomers) [Compound 59] | 90% | 93% |  |  |
| O=C(CN1CCC(NC(=O)c2ccccc2)C1)NC1CCc2cc(F)ccc2C1Cc1cccnc1 (mixture of isomers) [Compound 60] | 86% | 109% |  |  |
| NC(CCCCNS(=O)(=O)c1ccccc1)CNC1CCc2ccccc2C1Cc1cccnc1 (mixture of isomers) [Compound 65] | 79% | 98% |  |  |
| CCNC(CCCCNS(=O)(=O)c1ccccc1)CNC1CCc2ccccc2C1Cc1cccnc1 (mixture of isomers) [Compound 68] | 109% | 108% |  |  |
| O=C(Nc1ccccc1)NC(CCCCNS(=O)(=O)c1ccccc1)C(=O)NC1CCc2ccccc2C1Cc1cccnc1 (mixture of isomers) [Compound 72] | 41% | 73% |  |  |
| O=C(CN1CCC(NS(=O)(=O)c2ccccc2)C1)N[C@H]1CCc2cc(F)ccc2[C@H]1Cc1cccnc1 (relative stereo) [Compound 17, 3-[(Phenylsulfonyl)amino]-N-[cis-1,2,3,4-tetrahydro-6-fluoro-1-(3-pyridinylmethyl)-2-naphthalenyl]-1-pyrrolidineacetamide bis-trifluoroacetate] |  |  | 98% | 102% |
| COc1ccc2c(c1)CC[C@H](NC(=O)CN1CCC(n3c(=O)[nH]c4ccccc43)CC1)[C@@H]2Cc1cccnc1 (relative stereo) [Compound 19, 4-(2,3-Dihydro-2-oxo-1H-benzimidazol-1-yl)-N-[cis-1,2,3,4-tetrahydro-6-methoxy-1-(3-pyridinylmethyl)-2-naphthalenyl]-1-piperidineacetamide Bis-hydrochloride] |  |  | 69% | 101% |
| COc1ccc2c(c1)CC[C@@H](NC(=O)CN1CCC(n3c(=O)[nH]c4ccccc43)CC1)[C@@H]2Cc1cccnc1 (relative stereo) [Compound 20, 4-(2,3-Dihydro-2-oxo-1H-benzimidazol-1-yl)-N-[trans-1,2,3,4-tetrahydro-6-methoxy-1-(3-pyridinylmethyl)-2-naphthalenyl]-1-piperidineacetamide bis-hydrochloride] |  |  | 88% | 96% |
| CC(=O)C1(c2ccccc2)CCN(CC(=O)N[C@H]2CCc3ccccc3[C@H]2Cc2cccnc2)CC1 (relative stereo) [Compound 21, 4-Acetyl-4-phenyl-N-[cis-1,2,3,4-tetrahydro-1-(3-pyridinylmethyl)-2-naphthalenyl]-1-piperidineacetamide bis-hydrochloride] |  |  | 83% | 98% |
| O=C(CN1CCC2(CC1)C(=O)NCN2c1ccccc1)N[C@H]1CCc2ccccc2[C@H]1Cc1cccnc1 (relative stereo) [Compound 22, 4-Oxo-1-phenyl-N-[cis-1,2,3,4-tetrahydro-1-(3-pyridinylmethyl)-2-naphthalenyl]-1,3,8-triazaspiro[4.5]decane-8-acetamide bis-hydrochloride] |  |  | 32% | 70% |
| O=C(CN1CCC(n2c(=O)[nH]c3ccccc32)CC1)N[C@H]1CCc2cc(O)ccc2[C@H]1Cc1cccnc1 (relative stereo) [Compound 23, 4-(2,3-Dihydro-2-oxo-1H-benzimidazol-1-yl)-N-[cis-1,2,3,4-tetrahydro-6-hydroxy-1-(3-pyridinylmethyl)-2-naphthalenyl]-1-piperidineacetamide bis-hydrochloride] |  |  | 96% | 100% |
| O=C(NCC(Cc1cccnc1)c1ccc(F)cc1)[C@H]1CC[C@H](CNS(=O)(=O)c2ccccc2F)CC1 (relative stereo) [Compound 26, trans-N-[2-(4-fluorophenyl)-3-(3-pyridinyl)propyl]-4-[((2-fluorophenylsulfonyl)amino)methyl]-1-cyclohexanamide hydrochloride] |  |  | 108% | 110% |
| NC(CCCCNS(=O)(=O)c1ccccc1)C(=O)NC1CCc2ccccc2C1Cc1cccnc1 (single isomer, unassigned) [Compound 34a] | 87% | 97% |  |  |
| NC(CCCCNS(=O)(=O)c1ccccc1)C(=O)NC1CCc2ccccc2C1Cc1cccnc1 (single isomer, unassigned) [Compound 34b] | 61% | 99% |  |  |
| CC(=O)NC(CCCCNS(=O)(=O)c1ccccc1)C(=O)NC1CCc2ccccc2C1Cc1cccnc1 (single isomer, unassigned) [Compound 38a] | 80% | 104% |  |  |
| CC(=O)NC(CCCCNS(=O)(=O)c1ccccc1)C(=O)NC1CCc2ccccc2C1Cc1cccnc1 (single isomer, unassigned) [Compound 38b] | 89% | 101% |  |  |
| CN(C)C(CCCCNS(=O)(=O)c1ccccc1)C(=O)NC1CCc2ccccc2C1Cc1cccnc1 (single isomer, unassigned) [Compound 43a] | 84% | 93% |  |  |
